This test relates to animal model of osteonecrosis. The test can be described thus: Effect of strontium malonate in an animal model of osteonecrosis (necrotic bone graft in titanium chamber, histology). The class given is in vivo, rat. Conditions: male Sprague-Dawley rats, necrotic bone graft in tibia, 1.6 g/l in drinking water ad libitum (approx. 120 mg strontium malonate/day), 6 weeks; mean (±SD); p=0.038 vs calcium malonate control 2.24 (±1.00). The text has this: The rationale for the study was to assess the ability of strontium to act as a therapeutic and bone growth promoting (i.e. pro-anabolic) agent in an animal model of osteonecrosis. […] The necrotic graft was degraded, while ingrowth of new bone occurred. At termination of the experiment, the structural grafts was removed and analyzed by histology to quantify both the degradation of the necrotic graft as well as ingrowth of new bone. Concomitant treatment with anabolic and/or anti-resorptive agents may be given after the insertion of the necrotic graft, and the effect monitored after termination of the experiment. This rat model has previously been described (Astrand J, Aspenberg P. BMC Musculoskelet Disord. 2002; 3(1):19).
The salts were prepared in a solution of 1.6 g/l, which is close to saturation (22-25° C.). Thus extensive stirring was required to completely dissolve the substances. A new batch of drinking water was prepared fresh every week for the duration of the experiment. When not in use the solution was stored at room temperature in a closed container. […]
After careful removal from the titanium chamber, the grafts were decalcified in 10% formic acid, 2% formaldehyde for 14 days. […] Each section was subsequently stained with hematoxylin and eosin, and visually scored for appearance of degradation of the necrotic graft as well as ingrowth of new bone.

Regarding `O=C([O-])CC(=O)[O-].[Sr+2]` [strontium malonate], the “average ingrowth of new bone (ingrowth distance)” value is 3.43 (±1.35 (SD)) mm.

For the origin of these results see US8609616B2, “Strontium-containing compounds for use in the prevention or treatment of necrotic bone conditions” (Osteologix A/S, priority 2004, dated 2013).
